Measured values: the CheMixHub viscosity set

Experiment: xn = mol fraction of the nth substance listed

CC(Cl)(Cl)Cl + C1CCOC1
303.15 K, 101 kPa
Conditions | viscosity [mPa·s]
x2 = 0.0731 | 0.7289
x2 = 0.1213 | 0.7262
x2 = 0.2262 | 0.7112
x2 = 0.3894 | 0.6687
x2 = 0.4716 | 0.6424
x2 = 0.5677 | 0.6104
x2 = 0.6475 | 0.5834
x2 = 0.7415 | 0.5513
x2 = 0.8139 | 0.5271
x2 = 0.866 | 0.51

O=CO + CC(=O)O
viscosity [mPa·s], 101 kPa
Conditions | 298.15 K | 323.15 K
x1 = 0.0603 | 1.119 | 0.7729
x1 = 0.1 | 1.286 | –
x1 = 0.2 | 1.391 | –
x1 = 0.2363 | 1.278 | 0.8526
x1 = 0.3 | 1.463 | –
x1 = 0.4 | 1.506 | –
x1 = 0.4165 | 1.425 | 0.9226
x1 = 0.5 | 1.564 | –
x1 = 0.6 | 1.587 | –
x1 = 0.613 | 1.52 | 0.9694
x1 = 0.7 | 1.607 | –
x1 = 0.7416 | 1.565 | 0.9847
x1 = 0.8 | 1.607 | –
x1 = 0.8864 | 1.565 | 0.9893
x1 = 0.9 | 1.582 | –
x1 = 0.9578 | 1.56 | 0.9775

O=C(O)CC(O)(CC(=O)O)C(=O)O + C[N+](C)(C)CCO.[Cl-]
viscosity [mPa·s], x2 = 0.5
Conditions | 298 K | 303 K | 313 K | 323 K
101 kPa | – | 2085000 | 510000 | –
101.3 kPa | 14480 | – | – | 2242

CC(Cl)(Cl)Cl + CC(C)=O
298.15 K, 101.33 kPa
Conditions | viscosity [mPa·s]
x1 = 0.102 | 0.3356
x1 = 0.2 | 0.3677
x1 = 0.302 | 0.4042
x1 = 0.401 | 0.4432
x1 = 0.501 | 0.4862
x1 = 0.549 | 0.5085
x1 = 0.551 | 0.5098
x1 = 0.601 | 0.5341
x1 = 0.649 | 0.5591
x1 = 0.651 | 0.56
x1 = 0.701 | 0.5875
x1 = 0.75 | 0.6158
x1 = 0.794 | 0.6443
x1 = 0.852 | 0.6824

CC/C(C)=N/O + C1CCCCC1
viscosity [mPa·s], 101.3 kPa
Conditions | x1 = 0.0972 | x1 = 0.1952 | x1 = 0.2926 | x1 = 0.3921 | x1 = 0.4913 | x1 = 0.5914 | x1 = 0.6926 | x1 = 0.7942 | x1 = 0.8967
293.15 K | 1.007 | 1.072 | 1.166 | 1.302 | 1.489 | 1.75 | 2.122 | 2.681 | 3.585
298.15 K | 0.923 | 0.982 | 1.065 | 1.182 | 1.339 | 1.567 | 1.884 | 2.347 | 3.035
303.15 K | 0.844 | 0.895 | 0.967 | 1.068 | 1.205 | 1.397 | 1.667 | 2.053 | 2.622

CC(Cl)(Cl)Cl + CCC(C)O
298.15 K, 101 kPa
Conditions | viscosity [mPa·s]
x1 = 0.099 | 2.21
x1 = 0.2079 | 1.726
x1 = 0.2768 | 1.46
x1 = 0.3656 | 1.225
x1 = 0.5119 | 1.008
x1 = 0.5786 | 0.94
x1 = 0.6988 | 0.85
x1 = 0.78 | 0.808
x1 = 0.8911 | 0.781

CC(Cl)(Cl)Cl + CCCOCCC
298.15 K, 101.33 kPa
Conditions | viscosity [mPa·s]
x1 = 0.101 | 0.4245
x1 = 0.198 | 0.4478
x1 = 0.299 | 0.4745
x1 = 0.398 | 0.5036
x1 = 0.5 | 0.5365
x1 = 0.601 | 0.5733
x1 = 0.7 | 0.6147
x1 = 0.8 | 0.6632
x1 = 0.85 | 0.6907

C1CN2CN3CCN(CN1C3)C2 + [2H]O[2H]
viscosity [mPa·s], 101 kPa
Conditions | x1 = 0.004058 | x1 = 0.008015 | x1 = 0.01192 | x1 = 0.01581 | x1 = 0.02009
293.15 K | 1.263 | 1.307 | 1.389 | 1.485 | 1.602
298.15 K | 1.128 | 1.174 | 1.233 | 1.315 | 1.426
300.15 K | 1.018 | 1.066 | 1.131 | 1.225 | 1.352
305.15 K | 0.918 | 0.975 | 1.042 | 1.133 | 1.251

O=C(O)CC(O)(CC(=O)O)C(=O)O + O
viscosity [mPa·s]
Conditions | 293.15 K | 298.15 K | 303.15 K | 308.15 K | 313.15 K
100 kPa, x1 = 0.002 | – | 0.9112 | 0.8258 | 0.7481 | 0.6742
101.3 kPa, x1 = 0.00018 | 1.016 | 0.908 | 0.815 | 0.737 | 0.701
101.3 kPa, x1 = 0.0003607 | 1.025 | 0.917 | 0.822 | 0.741 | 0.675
101.3 kPa, x1 = 0.0005403 | 1.031 | 0.922 | 0.825 | 0.747 | 0.679

C1CN2CN3CCN(CN1C3)C2 + O
viscosity [mPa·s], 101 kPa
Conditions | x1 = 0.003598 | x1 = 0.007216 | x1 = 0.01073 | x1 = 0.01425 | x1 = 0.0183
293.15 K | 1.032 | 1.083 | 1.146 | 1.232 | 1.347
298.15 K | 0.928 | 0.985 | 1.047 | 1.129 | 1.24
300.15 K | 0.843 | 0.899 | 0.961 | 1.04 | 1.136
305.15 K | 0.764 | 0.822 | 0.88 | 0.96 | 1.054

CC(Cl)(Cl)Cl + CCOC(C)=O
Conditions | viscosity [mPa·s]
298.15 K, 101.33 kPa, x1 = 0.098 | 0.4485
298.15 K, 101.33 kPa, x1 = 0.197 | 0.4712
298.15 K, 101.33 kPa, x1 = 0.297 | 0.4964
298.15 K, 101.33 kPa, x1 = 0.398 | 0.5244
298.15 K, 101.33 kPa, x1 = 0.498 | 0.5554
298.15 K, 101.33 kPa, x1 = 0.598 | 0.5901
298.15 K, 101.33 kPa, x1 = 0.699 | 0.6295
298.15 K, 101.33 kPa, x1 = 0.771 | 0.665
298.15 K, 101.33 kPa, x1 = 0.885 | 0.7192
303.15 K, 101.3 kPa, x2 = 0.1006 | 0.6668
303.15 K, 101.3 kPa, x2 = 0.1989 | 0.6158
303.15 K, 101.3 kPa, x2 = 0.2986 | 0.5731
303.15 K, 101.3 kPa, x2 = 0.4038 | 0.5366
303.15 K, 101.3 kPa, x2 = 0.4965 | 0.5101
303.15 K, 101.3 kPa, x2 = 0.5999 | 0.4831
303.15 K, 101.3 kPa, x2 = 0.7003 | 0.4579
303.15 K, 101.3 kPa, x2 = 0.7974 | 0.4366
303.15 K, 101.3 kPa, x2 = 0.9008 | 0.4167

CC/C(C)=N/O + CCC(C)=O
viscosity [mPa·s], 101.3 kPa
Conditions | x1 = 0.0846 | x1 = 0.1716 | x1 = 0.2627 | x1 = 0.3557 | x1 = 0.4528 | x1 = 0.5541 | x1 = 0.6588 | x1 = 0.768 | x1 = 0.8817
293.15 K | 0.459 | 0.533 | 0.625 | 0.759 | 0.922 | 1.162 | 1.511 | 2.066 | 3.035
298.15 K | 0.438 | 0.508 | 0.592 | 0.714 | 0.86 | 1.073 | 1.368 | 1.836 | 2.619
303.15 K | 0.416 | 0.479 | 0.558 | 0.667 | 0.802 | 0.987 | 1.249 | 1.655 | 2.306

O=C(O)CC(O)(CC(=O)O)C(=O)O + C[N+](C)(C)Cc1ccccc1.[Cl-]
Conditions | viscosity [mPa·s]
323.1 K, 101 kPa, x2 = 0.5 | 88750

CC(Cl)(Cl)Cl + C1CCCCC1
303.15 K, 101 kPa
Conditions | viscosity [mPa·s]
x1 = 0.157 | 0.7897
x1 = 0.2218 | 0.776
x1 = 0.2876 | 0.7624
x1 = 0.3722 | 0.7462
x1 = 0.4768 | 0.7297
x1 = 0.543 | 0.7219
x1 = 0.679 | 0.713
x1 = 0.7525 | 0.7123
x1 = 0.8597 | 0.716
x1 = 0.9403 | 0.7201

CC(Cl)(Cl)Cl + CCCCCCCC
303.15 K, 101 kPa
Conditions | viscosity [mPa·s]
x1 = 0.1465 | 0.4786
x1 = 0.2573 | 0.4863
x1 = 0.3398 | 0.495
x1 = 0.4029 | 0.503
x1 = 0.4971 | 0.5195
x1 = 0.588 | 0.5408
x1 = 0.6617 | 0.5623
x1 = 0.7875 | 0.6103
x1 = 0.8238 | 0.6267
x1 = 0.9164 | 0.6735

O=CO + CC#N
303.15 K, 101 kPa
Conditions | viscosity [mPa·s]
x1 = 0.0912 | 0.386
x1 = 0.1824 | 0.422
x1 = 0.2772 | 0.468
x1 = 0.3728 | 0.523
x1 = 0.4721 | 0.597
x1 = 0.5735 | 0.691
x1 = 0.6751 | 0.801
x1 = 0.7806 | 0.962
x1 = 0.8891 | 1.17
